Source: PMC10073347 (Nature chemistry, 2023)

Target: T1, SeMet CtdP (Penicillium citrinum, UniProt Z9QVB9HE69)
T1 sequence (Z9QVB9HE69 1-348): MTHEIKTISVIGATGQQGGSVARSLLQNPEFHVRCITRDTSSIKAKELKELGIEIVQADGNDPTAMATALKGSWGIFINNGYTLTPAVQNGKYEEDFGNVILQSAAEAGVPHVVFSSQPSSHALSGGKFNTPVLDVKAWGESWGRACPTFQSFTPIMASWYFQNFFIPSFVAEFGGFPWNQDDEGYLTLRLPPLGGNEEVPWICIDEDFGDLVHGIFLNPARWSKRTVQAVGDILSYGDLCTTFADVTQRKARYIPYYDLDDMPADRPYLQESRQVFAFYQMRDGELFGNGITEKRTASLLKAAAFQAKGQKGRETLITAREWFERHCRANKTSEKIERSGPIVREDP
Assay: X-ray crystal structure, […] Å, SeMet SAD
Format: binding
Conditions: bound in all four chains; product 10 in chains A, B, D

NC(=O)c1ccc[n+]([C@@H]2O[C@H](COP(=O)(O)OP(=O)(O)OC[C@H]3O[C@@H](n4cnc5c(N)ncnc54)[C@H](OP(=O)(O)O)[C@@H]3O)[C@@H](O)[C@H]2O)c1 [NADP^+]
X-ray crystal structure, 2.5 Å, SeMet SAD: four chains (A-D) in the asymmetric unit, all in complex with NADP^+
